Measurements: patent US10640547B2, “Immunotherapy against melanoma and other cancers” (IMMATICS BIOTECHNOLOGIES GMBH, priority 2016, dated 2020)
One block for each substance: values may come before it.

How the values were obtained:
[1] = tested on: CD8+ T cells; test: In vitro immunogenicity: T-cell priming with artificial APCs loaded with peptide/MHC and anti-CD28, pMHC multimer readout; format: cell-based, human; details: for Wells positive [%]: Table 10B, HLA-A*02 restricted peptides, percentage of positive wells among evaluable; for Donors (in vitro immunogenicity) / Wells (in vitro immunogenicity): Table 10A, HLA class I peptides
Text: In order to obtain information regarding the immunogenicity of the TUMAPs of the present invention, the inventors performed investigations using an in vitro T-cell priming assay based on repeated stimulations of CD8+ T cells with artificial antigen presenting cells (aAPCs) loaded with peptide/MHC complexes and anti-CD28 antibody.
In order to perform in vitro stimulations by artificial antigen presenting cells loaded with peptide-MHC complex (pMHC) and anti-CD28 antibody, the inventors first isolated CD8+ T cells from fresh HLA-A*02 leukapheresis products via positive selection using CD8 microbeads (Miltenyi Biotec, Bergisch-Gladbach, Germany) of healthy donors obtained from the University clinics Mannheim, Germany, after informed consent.
PBMCs and isolated CD8+ lymphocytes were incubated in T-cell medium (TCM) until use consisting of RPMI-Glutamax (Invitrogen, Karlsruhe, Germany) supplemented with 10% heat inactivated human AB serum (PAN-Biotech, Aidenbach, Germany), 100 U/ml Penicillin/100 μg/ml Streptomycin (Cambrex, Cologne, Germany), 1 mM sodium pyruvate (CC Pro, Oberdorla, Germany), 20 μg/ml Gentamycin (Cambrex). 2.5 ng/ml IL-7 (PromoCell, Heidelberg, Germany) and 10 U/ml IL-2 (Novartis Pharma, Nürnberg, Germany) were also added to the TCM at this step.
Generation of pMHC/anti-CD28 coated beads, T-cell stimulations and readout was performed in a highly defined in vitro system using four different pMHC molecules per stimulation condition and 8 different pMHC molecules per readout condition.
The purified co-stimulatory mouse IgG2a anti human CD28 Ab 9.3 (Jung et al., 1987) was chemically biotinylated using Sulfo-N-hydroxysuccinimidobiotin as recommended by the manufacturer (Perbio, Bonn, Germany). Beads used were 5.6 μm diameter streptavidin coated polystyrene particles (Bangs Laboratories, Illinois, USA).
800.000 beads/200 μl were coated in 96-well plates in the presence of 4×12.5 ng different biotin-pMHC, washed and 600 ng biotin anti-CD28 were added subsequently in a volume of 200 μl. Stimulations were initiated in 96-well plates by co-incubating 1×10^6 CD8+ T cells with 2×10^5 washed coated beads in 200 μl TCM supplemented with 5 ng/ml IL-12 (PromoCell) for 3 days at 37° C. Half of the medium was then exchanged by fresh TCM supplemented with 80 U/ml IL-2 and incubating was continued for 4 days at 37° C. This stimulation cycle was performed for a total of three times. For the pMHC multimer readout using 8 different pMHC molecules per condition, a two-dimensional combinatorial coding approach was used as previously described (Andersen et al., 2012) with minor modifications encompassing coupling to 5 different fluorochromes. Finally, multimeric analyses were performed by staining the cells with Live/dead near IR dye (Invitrogen, Karlsruhe, Germany), CD8-FITC antibody clone SK1 (BD, Heidelberg, Germany) and fluorescent pMHC multimers. For analysis, a BD LSRII SORP cytometer equipped with appropriate lasers and filters was used. Peptide specific cells were calculated as percentage of total CD8+ cells. Evaluation of multimeric analysis was done using the FlowJo software (Tree Star, Oregon, USA). In vitro priming of specific multimer+CD8+ lymphocytes was detected by comparing to negative control stimulations.

[2] = biological target: HLA-A*02:01 (Homo sapiens, UniProt P04439, D140Y/D185E/D98H/E176V/E277Q/G131W/G231S/I119V/I121R/I166T/I218V/L300P/L318F/N151K/N90K/P208A/P217A/Q86G/Q94H/R138H/R169H/T345S); test: MHC binding assay (UV-ligand exchange, β2m ELISA); details: MHC class I binding score; binding to HLA-A*02:01 ranged by peptide exchange yield (UV-ligand exchange, β2m ELISA)
Procedure, shortened: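 UV-exchange pMHC monomers, 100-fold diluted → streptavidin capture 1 h 37 °C → HRP anti-β2m 2 ug/ml 1 h 37 °C → TMB, A450. Yield from HLA-A*02:01/MLA-001 monomer standard curve, 15-500 ng/ml. Only stably bound peptides keep β2m-containing complexes intact.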

Substance: 3 (VLFKDPVSV; listed as Homo sapiens) [compound 3]
Wells positive [%] [1]: + (<20% = +)
Peptide exchange [2]: ++++ (>75% = ++++)

Substance: 4 (KTWDQVPFSV; listed as Homo sapiens) [compound 4]
Wells positive [%] [1]: + (<20% = +)
Peptide exchange [2]: ++++ (>75% = ++++)

Substance: 8 (SIIPYLLEA; listed as Homo sapiens) [compound 8]
Wells positive [%] [1]: ++ (20%-49% = ++)
Peptide exchange [2]: ++++ (>75% = ++++)

Substance: 9 (SLAGLVLYV; listed as Homo sapiens) [compound 9]
Wells positive [%] [1]: ++ (20%-49% = ++)
Peptide exchange [2]: ++++ (>75% = ++++)

Substance: 10 (KMTQYITEL; listed as Homo sapiens) [compound 10]
Wells positive [%] [1]: ++ (20%-49% = ++)
Peptide exchange [2]: ++++ (>75% = ++++)

Substance: 11 (TLIELLLPKL; listed as Homo sapiens) [compound 11]
Wells positive [%] [1]: + (<20% = +)
Peptide exchange [2]: ++++ (>75% = ++++)

Substance: 12 (RLDDKTTNV; listed as Homo sapiens) [compound 12]
Wells positive [%] [1]: ++ (20%-49% = ++)
Peptide exchange [2]: +++ (>50 = +++)

Substance: 13 (IQSETTVTV; listed as Homo sapiens) [compound 13]
Wells positive [%] [1]: ++ (20%-49% = ++)
Peptide exchange [2]: ++++ (>75% = ++++)

Substance: 14 (VLYEMLYGL; listed as Homo sapiens) [compound 14]
Wells positive [%] [1]: +++ (50%-69% = +++)
Peptide exchange [2]: ++++ (>75% = ++++)

Substance: 15 (VLYDPVVGC; listed as Homo sapiens) [compound 15]
Wells positive [%] [1]: + (<20% = +)
Peptide exchange [2]: ++++ (>75% = ++++)

Substance: 16 (GLFPSNFVTA; listed as Homo sapiens) [compound 16]
Wells positive [%] [1]: + (<20% = +)
Peptide exchange [2]: ++++ (>75% = ++++)

Substance: 17 (GVVHGVATV; listed as Homo sapiens) [compound 17]
Wells positive [%] [1]: + (<20% = +)
Peptide exchange [2]: ++++ (>75% = ++++)

Substance: 18 (SLADVVDTL; listed as Homo sapiens) [compound 18]
Wells positive [%] [1]: + (<20% = +)
Peptide exchange [2]: ++++ (>75% = ++++)

Substance: 310 (ALASVIKEL; listed as Homo sapiens) [compound 310]
Donors (in vitro immunogenicity) [1]: ++ (20%-49% = ++)
Wells (in vitro immunogenicity) [1]: + (<20% = +)

Substance: 315 (KLSWDLIYL; listed as Homo sapiens) [compound 315]
Donors (in vitro immunogenicity) [1]: ++++ (≥70% = ++++)
Wells (in vitro immunogenicity) [1]: ++ (20%-49% = ++)

Substance: 318 (SIIEYLPTL; listed as Homo sapiens) [compound 318]
Donors (in vitro immunogenicity) [1]: ++++ (≥70% = ++++)
Wells (in vitro immunogenicity) [1]: + (<20% = +)

Substance: 320 (KIIGIMEEV; listed as Homo sapiens) [compound 320]
Donors (in vitro immunogenicity) [1]: ++++ (≥70% = ++++)
Wells (in vitro immunogenicity) [1]: ++++ (≥70% = ++++)

Substance: 321 (YLPTFFLTV; listed as Homo sapiens) [compound 321]
Donors (in vitro immunogenicity) [1]: +++ (50%-69% = +++)
Wells (in vitro immunogenicity) [1]: ++ (20%-49% = ++)

Substance: 322 (SLHFLILYV; listed as Homo sapiens) [compound 322]
Donors (in vitro immunogenicity) [1]: +++ (50%-69% = +++)
Wells (in vitro immunogenicity) [1]: ++ (20%-49% = ++)

Substance: 323 (VVDKTLLLV; listed as Homo sapiens) [compound 323]
Donors (in vitro immunogenicity) [1]: ++++ (≥70% = ++++)
Wells (in vitro immunogenicity) [1]: +++ (50%-69% = +++)

Substance: 326 (ALSGTLSGV; listed as Homo sapiens) [compound 326]
Donors (in vitro immunogenicity) [1]: ++++ (≥70% = ++++)
Wells (in vitro immunogenicity) [1]: + (<20% = +)

Substance: 328 (SLSQELVGV; listed as Homo sapiens) [compound 328]
Donors (in vitro immunogenicity) [1]: ++ (20%-49% = ++)
Wells (in vitro immunogenicity) [1]: + (<20% = +)

Substance: 332 (AVVEFLTSV; listed as Homo sapiens) [compound 332]
Donors (in vitro immunogenicity) [1]: ++ (20%-49% = ++)
Wells (in vitro immunogenicity) [1]: + (<20% = +)

Substance: 336 (YVDPVITSI; listed as Homo sapiens) [compound 336]
Donors (in vitro immunogenicity) [1]: ++++ (≥70% = ++++)
Wells (in vitro immunogenicity) [1]: ++ (20%-49% = ++)

Further lines, with some results ahead:

Peptide exchange [2]: ++++ (>75% = ++++)
Substance: 20 (VISPHGIASV; listed as Homo sapiens) [compound 20]
Wells positive [%] [1]: ++ (20%-49% = ++)

Peptide exchange [2]: ++ (>20% = ++)
Substance: 21 (FMYNFQLVTL; listed as Homo sapiens) [compound 21]
Wells positive [%] [1]: + (<20% = +)

Peptide exchange [2]: ++++ (>75% = ++++)
Substance: 31 (FLPRKFPSL; listed as Homo sapiens) [compound 31]
Wells positive [%] [1]: ++ (20%-49% = ++)

Peptide exchange [2]: ++++ (>75% = ++++)
Substance: 33 (SLYSYFQKV; listed as Homo sapiens) [compound 33]
Wells positive [%] [1]: ++++ (≥70% = ++++)

Peptide exchange [2]: ++++ (>75% = ++++)
Substance: 34 (YLINFEIRSL; listed as Homo sapiens) [compound 34]
Wells positive [%] [1]: + (<20% = +)

Peptide exchange [2]: ++++ (>75% = ++++)
Substance: 116 (LMDETMKEL; listed as Homo sapiens) [compound 116]
Wells positive [%] [1]: + (<20% = +)

Peptide exchange [2]: ++++ (>75% = ++++)
Substance: 121 (FLEDLVPYL; listed as Homo sapiens) [compound 121]
Wells positive [%] [1]: +++ (50%-69% = +++)

Peptide exchange [2]: +++ (>50 = +++)
Substance: 128 (ALFPGDVDRL; listed as Homo sapiens) [compound 128]
Wells positive [%] [1]: + (<20% = +)

Peptide exchange [2]: +++ (>50 = +++)
Substance: 133 (ALDPAYTTL; listed as Homo sapiens) [compound 133]
Wells positive [%] [1]: + (<20% = +)

Peptide exchange [2]: ++++ (>75% = ++++)
Substance: 155 (GLAGFFASV; listed as Homo sapiens) [compound 155]
Wells positive [%] [1]: ++++ (≥70% = ++++)

Peptide exchange [2]: ++++ (>75% = ++++)
Substance: 189 (KALQFLEEV; listed as Homo sapiens) [compound 189]
Wells positive [%] [1]: + (<20% = +)

Peptide exchange [2]: ++++ (>75% = ++++)
Substance: 191 (YLDKMNNNI; listed as Homo sapiens) [compound 191]
Wells positive [%] [1]: + (<20% = +)

Peptide exchange [2]: ++++ (>75% = ++++)
Substance: 192 (KLFTQIFGV; listed as Homo sapiens) [compound 192]
Wells positive [%] [1]: + (<20% = +)

Peptide exchange [2]: ++++ (>75% = ++++)
Substance: 211 (FLPFLTTEV; listed as Homo sapiens) [compound 211]
Wells positive [%] [1]: + (<20% = +)

Peptide exchange [2]: ++++ (>75% = ++++)
Substance: 213 (LLDPTNVFI; listed as Homo sapiens) [compound 213]
Wells positive [%] [1]: ++ (20%-49% = ++)

Peptide exchange [2]: ++++ (>75% = ++++)
Substance: 232 (KILPDLNTV; listed as Homo sapiens) [compound 232]
Wells positive [%] [1]: + (<20% = +)
